Source: patent publication US8772492B2, “Substituted isoquinoline and isoquinolinone derivatives” (Sanofi, priority 2006, dated 2014)

Target: T1, Active human recombinant ROCK II (N-terminal His6-tagged recombinant human ROCK-II residues 11-552) (Homo sapiens, UniProt O75116)
T1 construct: recombinant human ROCK-II residues 11-552; His6 (N); purchased Upstate Ltd., Dundee, UK
Test: Determination of Rho-kinase activity (Rho-kinase inhibition, Caliper peptide phosphorylation assay)
Type: biochemical
Conditions: Fluorescein-AKRRRLSSLRA-COOH peptide substrate and ATP, 60 min incubation at 32° C., tested as the form (salt or free base) obtained in the examples, read-out: pIC50 (negative decadal logarithm of the IC50), Rho-kinase inhibition (converted)
Protocol: Determination of Rho-Kinase Activity
To measure Rho-kinase inhibition, IC50 values were determined according to the following protocol:
Active human recombinant ROCK II (N-terminal His6-tagged recombinant human ROCK-II residues 11-552) was purchased from Upstate Ltd., Dundee, UK. The peptide substrate, Fluorescein-AKRRRLSSLRA-COOH, was obtained from JPT Peptide Technologies, Berlin, Germany. Adenosine-5′-triphosphate (ATP), bovine serum albumine (BSA), dimethylsulphoxide (DMSO), 4-(2-Hydroxyethyl)piperazine-1-ethanesulfonic acid (Hepes), Brij-35 and dithiothreitol (DTT) were purchased from Sigma-Aldrich, Munich, Germany. Tris(hydroxymethyl)-aminomethane (Tris), magnesium chloride, NaOH, 1M HCl and EDTA were obtained from Merck Biosciences, Darmstadt, Germany. “Complete” protease inhibitor was from Roche Diagnostics, Mannheim, Germany.
Test compounds were diluted to the appropriate concentrations in buffer 1 (25 mM Tris-HCl, pH 7.4, 5 mM MgCl2, 2 mM DTT, 0.02% (w/v) BSA and 3% DMSO). The ROCK II enzyme was diluted to a concentration of 100 ng/ml in buffer 2 (25 mM Tris-HCl, pH 7.4, 5 mM MgCl2, 2 mM DTT and 0.02% (w/v) BSA). The peptide substrate and ATP were diluted to concentrations of 3 μM and 120 μM, respectively, in the buffer 2. Two μl of the compound solution were mixed with 2 μl of the diluted enzyme in a 384-well small volume microtiter plate (Greiner, Bio-One, Frickenhausen, Germany), and the kinase reaction was initiated by addition of 2 μl of the solution containing peptide substrate and ATP. After 60 min incubation at 32° C., the reaction was stopped by addition of 20 μl of a solution containing 100 mM Hepes-NaOH, pH 7.4, 0.015% (v/v) Brij-35, 45 mM EDTA and 0.227% chip coating reagent 1 (Caliper Lifescience Inc, Hopkinton, Mass.). Phosphorylation of the substrate peptide was then detected on a Caliper 3000 instrument essentially as described by Pommereau et al (J. Biomol. Screening 9(5), 409-416, 2004). Separation conditions were as follows: Pressure −1.3 psi, upstream voltage −1562 V, downstream voltage −500 V, sample sip time 200 ms. Positive controls (buffer 1 instead of compound) and negative controls (buffer 1 instead of compound and buffer 2 instead of ROCK II) were run in parallel on each plate.
The following products/compounds were tested in said assay by using the respective form (salt or free base) obtained as in the examples described above and the following activities were measured.

T1 sequence (O75116 11-552): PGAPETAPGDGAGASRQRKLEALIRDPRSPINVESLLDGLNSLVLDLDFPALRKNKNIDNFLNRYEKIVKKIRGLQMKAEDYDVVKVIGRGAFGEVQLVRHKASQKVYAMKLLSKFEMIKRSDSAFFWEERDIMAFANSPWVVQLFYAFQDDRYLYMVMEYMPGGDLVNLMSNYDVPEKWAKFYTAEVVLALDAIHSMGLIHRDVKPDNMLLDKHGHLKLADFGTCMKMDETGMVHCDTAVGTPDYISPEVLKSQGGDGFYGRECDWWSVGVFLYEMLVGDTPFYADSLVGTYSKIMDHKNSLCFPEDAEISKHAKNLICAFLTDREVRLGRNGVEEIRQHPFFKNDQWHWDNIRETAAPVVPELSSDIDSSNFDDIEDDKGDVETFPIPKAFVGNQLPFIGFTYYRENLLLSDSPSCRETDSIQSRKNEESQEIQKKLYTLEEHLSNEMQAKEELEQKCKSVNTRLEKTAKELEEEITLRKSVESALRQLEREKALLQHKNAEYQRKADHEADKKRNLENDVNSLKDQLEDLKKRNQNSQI

Row | SMILES | IC50
1 | COc1cccc(CNC(=O)[C@H]2CNC[C@@H]2Nc2ccc3cnccc3c2)c1 [Compound 48, (3S,4R)-4-(Isoquinolin-6-ylamino)-pyrrolidine-3-carboxylic acid 3-methoxy-benzylamide] | ≤ 1000 nM
2 | O=C(NCCO)[C@@H]1C[C@@H](Oc2ccc3cnccc3c2)CN1 [Compound 27, (2S,4R)-4-(Isoquinolin-6-yloxy)-pyrrolidine-2-carboxylic acid (2-hydroxy-ethyl)-amide] | 1000 to 10000 nM
3 | C#CCNC(=O)[C@@H]1C[C@@H](Oc2ccc3cnccc3c2)CN1 [Compound 31, (2S,4R)-4-(Isoquinolin-6-yloxy)-pyrrolidine-2-carboxylic acid prop-2-ynylamide] | ≤ 1000 nM
4 | O=c1[nH]ccc2cc(OC3(c4ccccc4)CCN(Cc4ccccc4)CC3)c(Cl)cc12 [Compound 69, 6-(1-Benzyl-4-phenyl-piperidin-4-yloxy)-7-chloro-2H-isoquinolin-1-one] | 1000 to 10000 nM
5 | O=C(NCc1ccccc1Cl)[C@@H]1C[C@@H](Oc2ccc3cnccc3c2)CCN1 [Compound 22, (2S,4S)-4-(Isoquinolin-6-yloxy)-piperidine-2-carboxylic acid 2-chloro-benzylamide] | ≤ 1000 nM
6 | Cc1cc2c(=O)[nH]ccc2cc1O[C@H]1C[C@H]2CC[C@@H](C1)N2C [Compound 76, 7-Methyl-6-(8-methyl-8-aza-bicyclo[3.2.1]oct-3-yloxy)-2H-isoquinolin-1-one] | ≤ 1000 nM
7 | O=C(NCCc1ccccc1)[C@@H]1C[C@H](Nc2ccc3cnccc3c2)CN1 [Compound 45, (2S,4S)-4-(Isoquinolin-6-ylamino)-pyrrolidine-2-carboxylic acid phenethyl-amide] | ≤ 1000 nM
8 | Cc1ccccc1NC(=O)[C@H]1CNC[C@@H]1Nc1ccc2cnccc2c1 [Compound 50, (3S,4R)-4-(Isoquinolin-6-ylamino)-pyrrolidine-3-carboxylic acid o-tolylamide] | ≤ 1000 nM
9 | O=C(NCCc1ccccc1)[C@@H]1C[C@@H](Oc2ccc3cnccc3c2)CCN1 [Compound 21, (2S,4S)-4-(Isoquinolin-6-yloxy)-piperidine-2-carboxylic acid phenethyl-amide] | 1000 to 10000 nM
10 | COCCNC(=O)[C@H]1CNC[C@@H]1Nc1ccc2cnccc2c1 [Compound 49, (3S,4R)-4-(Isoquinolin-6-ylamino)-pyrrolidine-3-carboxylic acid (2-methoxy-ethyl)-amide] | 1000 to 10000 nM
11 | CN1[C@@H]2CC[C@H]1C[C@@H](Oc1cc3cc[nH]c(=O)c3cc1Cl)C2 [Compound 75, 7-Chloro-6-(8-methyl-8-aza-bicyclo[3.2.1]oct-3-yloxy)-2H-isoquinolin-1-one] | ≤ 1000 nM
12 | O=C(NCc1ccco1)[C@@H]1C[C@H](Nc2ccc3cnccc3c2)CN1 [Compound 41, (2S,4S)-4-(Isoquinolin-6-ylamino)-pyrrolidine-2-carboxylic acid (furan-2-ylmethyl)-amide] | 1000 to 10000 nM
